Laboratory results taken from publication PMC11202169, “A Novel Fluorescence-Based Microplate Assay for High-Throughput Screening of hSULT1As Inhibitors” (Biosensors, 2024).
Structures can show the parent of a compound that is named as a salt.

What was measured:
[1] = Fluorescence quantum yield; assay type: physicochemical; settings: physiological conditions; standard quinine sulfate (Φ = 0.55)
Procedure: The fluorescence quantum yield is defined as the ratio of the number of photons emitted to the number of photons absorbed, which is a key parameter in fluorescence spectroscopy that describes the efficiency of the fluorescence process. The fluorescence quantum yields (Φ) of HN-241 and HN-241 sulfate were measured using quinine sulfate in 50 mM aqueous H2SO4 (Φ = 0.55) as the standard, and calculated according to the following Equation (1). (1) Yu=Ys × Fu × As/Fs × Au
“A” represents the absorbance at the excitation wavelength, “F” denotes the integral fluorescence intensity, and the subscripts “s” and “u” refer to the standard and sample, respectively.

[2] = tested on: hSULT1As; assay: O-sulfation and spectroscopic changes with hSULT1As (statements for all isoforms together); assay type: biochemical, human; settings: substrate 10 μM, all tested hSULT1A isozymes
Procedure: (§1) The incubation system consisted of Tris-HCl buffer (pH 7.4, 50 mM), MgCl2 (5 mM), DTT (200 μM), recombinant hSULT1As (29 pmol), and each fluorophore or 4-HN derivative (10 μM). After pre-incubation at 37 °C for 3 min, the reaction was initiated by adding an excess of PAPS (200 μM). Following 1 h incubation, the reaction was terminated with the addition of an equal volume of ice-cold acetonitrile. After centrifugation at 20,000× g for 20 min at 4 °C, the supernatant was collected for HPLC analysis. The mobile phase consisted of 10 mM aqueous ammonium acetate (A) and acetonitrile (B) at a flow rate of 0.4 mL/min. Gradient elution was performed under the following conditions: 0–2.0 min, 5% B; 2.0–10.0 min, 5–95% B; 10.0−12.0 min, 95% B; 12.0–12.5 min, 95–5% B; and 12.5–15.0 min, 5% B.
The spectroscopic changes in these fluorophores following O-sulfation were investigated. The incubation system was the same as that used in Section 2.3. The emission spectra of eight fluorophores in the presence and absence of three hSULT1A isoforms were determined using BioTek Synergy H1.

[3] = target: T1, hSULT1A2 (Homo sapiens, UniProt P50226); assay: hSULT1As reaction phenotyping assay (HPLC), hSULT1A2; assay type: biochemical; settings: for Sulfation rate: peak area of the sulfated metabolite detected by HPLC, hSULT1A2: fluorophore 10 μM, PAPS 200 μM, 1 h, 37 °C
T1 construct: 6-histidine tag (N); TEV site (N); made in house; host or cells: Escherichia coli BL21 (DE3), pET29a(+)
T1 sequence (P50226 whole entry): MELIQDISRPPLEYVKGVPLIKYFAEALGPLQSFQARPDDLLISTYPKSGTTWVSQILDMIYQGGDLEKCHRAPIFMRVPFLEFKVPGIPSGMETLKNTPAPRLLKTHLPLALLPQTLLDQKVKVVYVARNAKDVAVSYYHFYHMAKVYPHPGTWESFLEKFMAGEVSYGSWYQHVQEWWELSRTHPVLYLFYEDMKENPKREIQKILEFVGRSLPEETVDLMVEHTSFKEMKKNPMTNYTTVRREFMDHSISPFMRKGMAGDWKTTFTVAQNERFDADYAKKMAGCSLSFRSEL
Procedure: as §1

[4] = target: T2, hSULT1A1 (Homo sapiens, UniProt P50225); assay: hSULT1As reaction phenotyping assay (HPLC), hSULT1A1; assay type: biochemical; settings: for Sulfation rate: peak area of the sulfated metabolite detected by HPLC, hSULT1A1: fluorophore 10 μM, PAPS 200 μM, 1 h, 37 °C
T2 construct: 6-histidine tag (N); TEV site (N); made in house; host or cells: Escherichia coli BL21 (DE3), pET29a(+)
T2 sequence (P50225 whole entry): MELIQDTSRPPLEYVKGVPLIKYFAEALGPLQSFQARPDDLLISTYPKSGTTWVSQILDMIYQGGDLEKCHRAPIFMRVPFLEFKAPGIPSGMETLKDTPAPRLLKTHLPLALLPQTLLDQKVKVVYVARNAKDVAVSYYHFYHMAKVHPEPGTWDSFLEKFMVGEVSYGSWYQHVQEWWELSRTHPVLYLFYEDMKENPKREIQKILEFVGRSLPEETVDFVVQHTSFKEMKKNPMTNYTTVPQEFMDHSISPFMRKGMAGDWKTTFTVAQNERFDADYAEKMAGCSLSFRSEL
Procedure: as §1

[5] = target: T2, hSULT1A1; assay: Fluorescence-based microplate inhibition assay, hSULT1A1-catalyzed HN-241 4-O-sulfation; assay type: biochemical; settings: test compound 1 μM, HN-241 1 μM, 15 min; for activity at 1 µM: read-out: Residue activity (%) hSULT1A1;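 for all read-outs here: reaction started with 200 µM PAPS at 37 °C, fluorescence read continuously (Ex 350 nm, Em 450 nm), activity expressed relative to DMSO-only control without inhibitor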
[6] = target: T3, hSULT1A3 (Homo sapiens, UniProt P0DMM9); assay: Fluorescence-based microplate inhibition assay, hSULT1A3-catalyzed HN-241 4-O-sulfation; assay type: biochemical; settings: test compound 10 μM, HN-241 10 μM, 15 min; for activity at 10 µM: read-out: Residue activity (%) hSULT1A3
T3 construct: 6-histidine tag (N); TEV site (N); made in house; host or cells: Escherichia coli BL21 (DE3), pET29a(+)
T3 sequence (P0DMM9 whole entry): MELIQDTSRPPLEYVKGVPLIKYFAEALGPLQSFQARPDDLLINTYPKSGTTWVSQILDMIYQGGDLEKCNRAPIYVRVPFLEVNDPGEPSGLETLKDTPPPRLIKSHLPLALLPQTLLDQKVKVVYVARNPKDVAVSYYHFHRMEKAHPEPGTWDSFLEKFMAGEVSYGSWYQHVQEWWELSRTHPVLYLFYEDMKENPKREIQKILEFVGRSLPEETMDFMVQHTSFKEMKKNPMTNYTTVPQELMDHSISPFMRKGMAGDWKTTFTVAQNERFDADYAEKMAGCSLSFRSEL

[7] = target: T1, hSULT1A2; assay: Fluorescence-based microplate inhibition assay, hSULT1A2-catalyzed HN-241 4-O-sulfation; assay type: biochemical; settings: test compound 10 μM, HN-241 5 μM, 15 min; for remaining activity at 10 µM: 0.25 h, read-out: Residue activity (%) hSULT1A2
[8] = target: T3, hSULT1A3; assay: hSULT1As reaction phenotyping assay (HPLC), hSULT1A3; assay type: biochemical; settings: fluorophore 10 μM, PAPS 200 μM, 1 h, 37 °C
Procedure: as §1

## CCN1C(=O)c2cccc3c(OS(=O)(=O)O)ccc(c23)C1=O [HN-241 sulfate]
[1]
  Fluorescence quantum yield (Φ): 0.86

## CN(C)CCN1C(=O)c2cccc3c(O)ccc(c23)C1=O [HN-283]
[2]
  O-sulfation by hSULT1As (in words): very slow O-sulfation rates

## O=C(O)CCCN1C(=O)c2cccc3c(O)ccc(c23)C1=O [HN-299]
[2]
  O-sulfation by hSULT1As (in words): very slow O-sulfation rates

## O=C1c2cccc3c(O)ccc(c23)C(=O)N1CCc1ccccc1 [HN-317]
[2]
  O-sulfation by hSULT1As (in words): very slow O-sulfation rates

## O=C1c2cccc3c(O)ccc(c23)C(=O)N1CCc1ccc(F)cc1 [HN-335]
[2]
  O-sulfation by hSULT1As (in words): very slow O-sulfation rates

## Cc1ccc(NC(=O)CCCN2C(=O)c3cccc4c(O)ccc(c34)C2=O)cc1 [HN-388]
[3]; 4-HN derivative 10 μM
  O-sulfation in hSULT1A2 (in words): scarcely metabolized
[4]; 4-HN derivative 10 μM
  O-sulfation in hSULT1A1 (in words): rapidly metabolized

## C/C=C(/C)C(=O)O[C@H]1c2cc(OC)c(OC)c(OC)c2-c2c(cc3c(c2OC)OCO3)C[C@H](C)[C@]1(C)O [Schisantherin B]
[5]
  activity at 1 µM: 109%
[6]
  activity at 10 µM: 108%
[7]
  remaining activity at 10 µM: 109%

## COc1ccc(-c2cc(=O)c3c(O)cc(O)c(-c4cc(-c5cc(=O)c6c(O)cc(OC)cc6o5)ccc4OC)c3o2)cc1 [Sciadopitysin]
[5]
  Residue activity (%) hSULT1A1: 27.69%
[6]
  Residue activity (%) hSULT1A3: 62.24%
[7]
  Residue activity (%) hSULT1A2: 2.03%

## CC(C)=CC[C@@H](O)C1=CC(=O)c2c(O)ccc(O)c2C1=O [Shikonin]
[5]
  activity at 1 µM: 64.5%
[6]
  activity at 10 µM: 61%
[7]
  remaining activity at 10 µM: 18.6%

## COC1=C[C@@H]2[C@@H]3Cc4ccc(OC)c(O)c4[C@]2(CCN3C)CC1=O [Sinomenine]
[5]
  activity at 1 µM: 103%
[6]
  activity at 10 µM: 110%
[7]
  remaining activity at 10 µM: 103%

## O=C1c2c(O)cc(O)cc2OC(c2ccc(O)c(O)c2)C1O (stereo not shown) [Taxifolin]
[5]
  activity at 1 µM: 3.26%
[6]
  activity at 10 µM: 59.7%
[7]
  remaining activity at 10 µM: 41.7%

## COc1c(O)cc2occ(-c3ccc(O)cc3)c(=O)c2c1O [Tectorigenin]
[5]
  activity at 1 µM: 4.17%
[6]
  activity at 10 µM: 86.8%
[7]
  remaining activity at 10 µM: 4.26%

## O=C(O[C@@H]1[C@@H](O)[C@H](Oc2cc(O)c(C(=O)CCc3ccccc3)c(O)c2)O[C@@H]2COC(=O)c3cc(O)c(O)c(O)c3-c3c(cc(O)c(O)c3O)C(=O)O[C@@H]12)c1cc(O)c(O)c(O)c1 [Thonningianin A]
[5]
  activity at 1 µM: 12%
[6]
  activity at 10 µM: 17.6%
[7]
  remaining activity at 10 µM: 3.29%

## CC(C)[C@]12O[C@H]1[C@@H]1O[C@]13[C@]1(O[C@H]1C[C@H]1C4=C(CC[C@@]13C)C(=O)OC4)[C@@H]2O [Triptolide]
[5]
  activity at 1 µM: 109%
[6]
  activity at 10 µM: 110%
[7]
  remaining activity at 10 µM: 119%

## O=c1cc(-c2ccc(O)cc2)oc2c([C@@H]3O[C@H](CO)[C@@H](O)[C@H](O)[C@H]3O)c(O)cc(O)c12 [Vitexin]
[5]
  activity at 1 µM: 102%
[6]
  activity at 10 µM: 108%
[7]
  remaining activity at 10 µM: 115%

## Cc1c2[n+](cc3cc4c(cc13)OCO4)CCc1cc3c(cc1-2)OCO3 [Worenine]
[5]
  Residue activity (%) hSULT1A1: 101.91%
[6]
  Residue activity (%) hSULT1A3: 125.56%
[7]
  Residue activity (%) hSULT1A2: 92.89%

## C/C1=C\CC(C)(C)/C=C/C(=O)/C(C)=C/CC1 [Zerumbone]
[5]
  activity at 1 µM: 102%
[6]
  activity at 10 µM: 108%
[7]
  remaining activity at 10 µM: 113%

## O=c1ccc2nc3ccc(O)cc3oc-2c1 [fluorophore A]
[3]
  Sulfation rate: peak area of the sulfated metabolite detected by HPLC, hSULT1A2: + (“+” shows the peak area of the sulfated metabolites of each fluorophore detected by HPLC, ranging from 0 to 10,000)
[4]
  Sulfation rate: peak area of the sulfated metabolite detected by HPLC, hSULT1A1: ++ (“++” and “+++” denote ranges from 10,000 to 50,000, and greater than 50,000, respectively)

## CCCCN1C(=O)c2cccc3c(O)ccc(c23)C1=O [fluorophore B, 4-hydroxy-N-butyl-1,8-naphthalimide]
[3]
  Sulfation rate: peak area of the sulfated metabolite detected by HPLC, hSULT1A2: ++ (“++” and “+++” denote ranges from 10,000 to 50,000, and greater than 50,000, respectively)
[4]
  Sulfation rate: peak area of the sulfated metabolite detected by HPLC, hSULT1A1: ++ (“++” and “+++” denote ranges from 10,000 to 50,000, and greater than 50,000, respectively)
[8]
  Sulfation rate: peak area of the sulfated metabolite detected by HPLC, hSULT1A3: ++ (“++” and “+++” denote ranges from 10,000 to 50,000, and greater than 50,000, respectively)

## CC1=[N+]2C(=C(c3ccc(O)cc3)c3ccc(C)n3[B-]2(F)F)C=C1 [fluorophore C]
[2]
  O-sulfation by hSULT1As (in words): could not be sulfated

## N#CC(C#N)=C1C=C(/C=C/c2ccc(O)cc2)Oc2ccccc21 [fluorophore D]
[3]
  Sulfation rate: peak area of the sulfated metabolite detected by HPLC, hSULT1A2: ++ (“++” and “+++” denote ranges from 10,000 to 50,000, and greater than 50,000, respectively)
[4]
  Sulfation rate: peak area of the sulfated metabolite detected by HPLC, hSULT1A1: +++ (“++” and “+++” denote ranges from 10,000 to 50,000, and greater than 50,000, respectively)

## CC1(C)OC(=C(C#N)C#N)C(C#N)=C1/C=C/c1cc2ccc(O)cc2oc1=O [fluorophore E]
[3]
  Sulfation rate: peak area of the sulfated metabolite detected by HPLC, hSULT1A2: +++ (“++” and “+++” denote ranges from 10,000 to 50,000, and greater than 50,000, respectively)
[4]
  Sulfation rate: peak area of the sulfated metabolite detected by HPLC, hSULT1A1: + (“+” shows the peak area of the sulfated metabolites of each fluorophore detected by HPLC, ranging from 0 to 10,000)
[8]
  Sulfation rate: peak area of the sulfated metabolite detected by HPLC, hSULT1A3: +++ (“++” and “+++” denote ranges from 10,000 to 50,000, and greater than 50,000, respectively)

## CC1(C)OC(=C(C#N)C#N)C(C#N)=C1/C=C/c1ccc2cc(O)ccc2c1 [fluorophore F]
[3]
  Sulfation rate: peak area of the sulfated metabolite detected by HPLC, hSULT1A2: + (“+” shows the peak area of the sulfated metabolites of each fluorophore detected by HPLC, ranging from 0 to 10,000)
[4]
  Sulfation rate: peak area of the sulfated metabolite detected by HPLC, hSULT1A1: +++ (“++” and “+++” denote ranges from 10,000 to 50,000, and greater than 50,000, respectively)

## CCCCN1C(=O)c2cccc3c4c(cc(c23)C1=O)C(C)(C)C(/C=C/c1ccc(O)cc1)=N4 [fluorophore G]
[2]
  O-sulfation by hSULT1As (in words): could not be sulfated

## CC[n+]1ccc(/C=C/c2ccc(-c3ccc(O)cc3)s2)c2ccccc21 [fluorophore H]
[3]
  Sulfation rate: peak area of the sulfated metabolite detected by HPLC, hSULT1A2: ++ (“++” and “+++” denote ranges from 10,000 to 50,000, and greater than 50,000, respectively)
[2]
  O-sulfation by hSULT1As (in words): highest O-sulfation rate
[4]
  Sulfation rate: peak area of the sulfated metabolite detected by HPLC, hSULT1A1: +++ (“++” and “+++” denote ranges from 10,000 to 50,000, and greater than 50,000, respectively)
[8]
  Sulfation rate: peak area of the sulfated metabolite detected by HPLC, hSULT1A3: +++ (“++” and “+++” denote ranges from 10,000 to 50,000, and greater than 50,000, respectively)

## CC(C)=CCc1cc(-c2oc3cc(O)cc(O)c3c(=O)c2O)ccc1O [iso-Licoflavonol]
[5]
  activity at 1 µM: 3.31%
[6]
  activity at 10 µM: 62.1%
[7]
  remaining activity at 10 µM: 0.03%

## O=C(/C=C/c1ccccc1)c1ccccc1 [trans-Chalcone]
[5]
  Residue activity (%) hSULT1A1: 71.86%
[6]
  Residue activity (%) hSULT1A3: 116.88%
[7]
  Residue activity (%) hSULT1A2: 91.40%

## Ginkgolic acid
[5]
  Residue activity (%) hSULT1A1: 12.05%
[6]
  Residue activity (%) hSULT1A3: 66.66%
[7]
  Residue activity (%) hSULT1A2: 13.44%

## Gomisin A
[5]
  Residue activity (%) hSULT1A1: 129.03%
[6]
  Residue activity (%) hSULT1A3: 122.78%
[7]
  Residue activity (%) hSULT1A2: 97.44%

## Hydroxysafflor yellow A
[5]
  Residue activity (%) hSULT1A1: 97.09%
[6]
  Residue activity (%) hSULT1A3: 99.76%
[7]
  Residue activity (%) hSULT1A2: 100.46%

## Myricitrin
[5]
  Residue activity (%) hSULT1A1: 96.68%
[6]
  Residue activity (%) hSULT1A3: 110.49%
[7]
  Residue activity (%) hSULT1A2: 84.45%

## Sennosides
[5]
  Residue activity (%) hSULT1A1: 26.92%
[6]
  Residue activity (%) hSULT1A3: 19.21%
[7]
  Residue activity (%) hSULT1A2: 3.06%
